Experimental data published in publication PMC12017328, “RNA toehold switch-based reporter assay to assess bacterial uptake of antisense oligomers” (mBio, 2025).

Legend:
[1] = tested on: Salmonella carrying the TS7::sfGFP reporter plasmid; assay: Toehold switch reporter assay, microplate reader; type: cell-based, Salmonella enterica serovar Typhimurium strain SL1344; conditions: CPP conjugated to PNA_toe, 5 µM, TS7-Mut_9::sfGFP, 17 h, MHB; for Fold increase in fluorescence compared to the water-treated control: normalized to OD600
Excerpt: Next, we tested whether 11-mer PNAs can activate the toehold switch in bacteria. We established the reporter assay in Salmonella enterica serovar Typhimurium (referred to as Salmonella hereafter), which we have previously used as a model organism for studying PNAs ([13], [17], [22]). In constructing a reporter plasmid, we cloned the TS7 sequence upstream of the coding sequence of superfolder GFP (sfGFP) and downstream of a constitutive PLtetO-1 promoter in the pXG10-SF vector ([35]) (see Materials and Methods for details). The final product is a fusion protein (TS7::sfGFP) in which the 10 amino acids from the short TS7 coding sequence are genetically linked to the N-terminus of sfGFP. We introduced the reporter plasmid in Salmonella. The bacteria were grown to an early log-phase in standard Mueller-Hinton broth (MHB), commonly used for testing antibacterial activity ([36]). As a proof-of-concept, we chose to deliver the PNAs through conjugation with (KFF)3K, a frequently used CPP (referred to as KFF hereafter). We tested two PNAs, PNA_toe as used above in vitro and a PNA that targets the mid-stem region (PNA_mid) of the switch (Fig. 2A). We treated the bacterial culture with varying concentrations (2.5 µM, 5 µM, or 7.5 µM) of the KFF-PNAs in a microtiter plate, recording GFP fluorescence and turbidity as bacterial growth continued.
(§1) Overnight cultures of respective bacterial strains (listed in Table S5) were diluted 1:100 in fresh MHB and grown to OD600 0.3. Overnight and secondary cultures were prepared with or without chloramphenicol (20 µg/mL) depending on the antibiotic resistance profile of the strain. Ninty-five microliters of the 0.3 OD600 bacterial suspension was distributed in the 96-well plate and mixed with 5 µL water or 20× CPP PNA working solutions (150 µM, 100 µM or 50 µM stocks in water). An equivalent volume of water was added to the bacteria to serve as untreated control. For testing the activity in other growth media (M9 minimal medium and LB), the bacteria were cultured in the respective media and treated as described above.
(§2) The PNA-treated samples were incubated in the plate reader for 4–24 h at 37°C, with continuous double-orbital shaking (237 counts per minute). The fluorescence (λex 480 nm/λem 510 nm) and OD600 were recorded in a Synergy H1 plate reader (Biotek) by measuring every 20 min. The bacteria were sampled at various time points post-treatment and further analyzed by flow cytometry.
(§3) Normalization of fluorescence intensity (FInorm) = FI (sample)−FI (medium background)/OD
Fold upregulation in fluorescence intensity (FI) from the plate reader was calculated as follows:
fold upregulation = FI (normalized sample)/FI (normalized control)

[2] = tested on: Salmonella, UPEC 536, E. coli MG1655 and BW25113 expressing TS7-Mut_9::sfGFP; assay: Toehold switch reporter assay, flow cytometry, statements for all strains; type: cell-based, Salmonella enterica; E. coli; conditions: CPP conjugated to PNA_toe, 5 µM; for Dynamics of sfGFP upregulation: measured at 4, 6 and 17 h, all strains
Description: According to previous RNA-seq analyses ([12], [13], [22]), CPP-PNAs can strongly downregulate target mRNAs within 15 min. […] We therefore repeated the screen conducted and assayed fluorescence by flow cytometry at 4, 6, and 17 h post-treatment. […] The level of upregulation observed in the E. coli K12 strains was again substantially lower than in Salmonella and UPEC 536. […] This might be related to the stability of KFF in the culture media.
Fig 9 Flow cytometric analysis of fluorescence of sfGFP informs on delivery efficiency of CPPs. Bacterial cultures expressing the TS7-Mut_9::sfGFP reporter construct treated with the indicated CPP-PNA_toe constructs at 5 µM each. The median fluorescence intensity of sfGFP was measured after 4 h (black bars), 6 h (dark gray bars), and 17 h (light gray bars) of treatment using flow cytometry. Relative upregulation of sfGFP is shown and was calculated by dividing the median fluorescence intensity of the test samples by the median fluorescence intensity of the control samples, to which water was added. Error bars indicate the standard deviation calculated from two independent experiments.
as §1
(§4) Bacterial cells were treated as described above, fixed with 4% paraformaldehyde (PFA) in phosphate-buffered saline (PBS) after the indicated time points, and stained with 1 µg/mL DAPI for flow cytometric measurement of DAPI-positive bacterial cells. Cell suspensions were diluted by a factor of ~100–1,000 in PBS and sampled from 96-well plates to achieve ~2,000 counts/s for flow cytometric measurements. Flow cytometry was performed using the Agilent Novocyte flow cytometer with a high-throughput sampler, and 100,000 events were recorded per sample. The DAPI fluorescence was detected using the Pacific Blue channel; sfGFP and mNeon were detected in the FITC channel, and mCherry fluorescence in the PE-Texas Red channel. The lower threshold for FSC-H was set to 2,000 to eliminate the potential artifacts from smaller particles such as dust, bubbles, or cell debris. The wild-type strains without plasmids served as a control to detect the background fluorescence, termed bacterial background. A contour plot with FSC and SSC, each with bins defined on a logarithmic scale was used to select singlets. The gating strategy is described in Fig.S6. The median fluorescence intensity was used for calculating the fold upregulation of fluorescence. Flow cytometry data sets were analyzed using the Novocyte software (Agilent).
(§5) Fold upregulation in median fluorescence intensity (FI) from flow cytometry was calculated as follows:
(§6) fold upregulation = FI (sample)−FI(bacterial background)/FI (water control)−FI(bacterial background)

[3] = tested on: Salmonella carrying the TS7::sfGFP reporter plasmid; assay: Toehold switch reporter assay, flow cytometry; type: cell-based, Salmonella enterica serovar Typhimurium strain SL1344
Description: as §1, §2, §4, §5, §6

[4] = tested on: Salmonella ΔsbmA mutant carrying TS7-Mut_9::sfGFP; assay: Toehold switch reporter assay, flow cytometry, ΔsbmA mutant; type: cell-based, Salmonella enterica serovar Typhimurium; conditions: 5 µM, 4 h
Excerpt: To confirm that activation of the toehold-switch reporter correlates with successful uptake of PNAs, we used a Salmonella ΔsbmA mutant strain unable to express the inner membrane transporter SbmA. […] In the ΔsbmA strain, treatment with KFF-PNA_toe triggered only marginal GFP expression in a small subpopulation of cells (ca 20%) as opposed to nearly 100% of all cells in the corresponding wild-type strain (Fig. 6A). The overall fluorescence intensity (FI) of the ΔsbmA mutant was also much lower than the wild-type strain (Fig. 6B).
Fig 6 Flow cytometric analysis of CPP-PNA uptake using the toehold switch reporter in a ΔsbmA mutant of Salmonella. […] (B) Median fluorescence intensity values for water-treated control (Control, black) and PNA-treated (KFF-PNA_toe, orange) samples are given in the plots. […]
(§7) Bacterial cells were treated as described above, fixed with 4% paraformaldehyde (PFA) in phosphate-buffered saline (PBS) after the indicated time points, and stained with 1 µg/mL DAPI for flow cytometric measurement of DAPI-positive bacterial cells. […] Flow cytometry was performed using the Agilent Novocyte flow cytometer with a high-throughput sampler, and 100,000 events were recorded per sample. The DAPI fluorescence was detected using the Pacific Blue channel; sfGFP and mNeon were detected in the FITC channel, and mCherry fluorescence in the PE-Texas Red channel. […]

[5] = tested on: E. coli BW25113, MG1655 and UPEC 536 carrying TS7-Mut_9::sfGFP; assay: Toehold switch reporter assay, microplate reader, E. coli strains; type: cell-based; conditions: CPP conjugated to PNA_toe; 5 µM; 17 h; MHB; all three E. coli strains
Excerpt: Having established the CPP screening assay in Salmonella, we next tested it in E. coli. We chose the E. coli K12 strains BW25113 and MG1655, and the uropathogenic isolate E. coli 536 (UPEC 536). […] To test if the low fluorescence was due to lower sfGFP protein levels, we performed a western blot analysis after treating the bacteria with CPP-PNAs (Fig. S4). The upregulation of sfGFP protein correlated with fluorescence upregulation. The E. coli K12 strains were less susceptible than Salmonella. For these strains, a more sensitive method compared to the microplate reader such as flow cytometry might provide better results.
Fig 8 Examining the performance of the toehold switch assay for screening of CPPs against E. coli. Various E. coli strains carrying the TS7-Mut_9::sfGFP encoding plasmid were treated with different CPP-PNA_toe constructs at 5 µM. As negative control, an equal volume of water (Control) was added instead. (A) Fluorescence intensity of sfGFP was recorded in a microplate reader for 17 h post-treatment measured in a microplate reader. (B) Upregulation in sfGFP fluorescence calculated relative to the water control based on the normalized fluorescence intensities at 17 h post-treatment. The experiment was performed two times, and bars indicate the mean value; error bars indicate the standard deviation from two independent experiments.
Overnight cultures of respective bacterial strains (listed in Table S5) were diluted 1:100 in fresh MHB and grown to OD600 0.3. […]
as §2, §3
Fold upregulation in fluorescence intensity (FI) from the plate reader was calculated as follows: […]

[6] = cited from earlier work
Excerpt: (§8) For example, we observed a rapid but transient increase in fluorescence for some CPPs (e.g., KFF) and a sustained increase for others (e.g., RXR). This variation can likely be explained by the chemistry and stability of these carriers. […] Therefore, the different dynamics in fluorescence increase c ...

[7] = tested on: E. coli BW25113 expressing TS7-Mut_9::sfGFP; assay: Toehold switch reporter assay, flow cytometry; type: cell-based; conditions: CPP conjugated to PNA_toe, 5 µM, 17 h
Description: as §1, with “For testing the activity in other growth media (M9 minimal medium and LB), the bacteria were cultured in the respective media and treated as described above.” left out
as §2
as §7, with “sample.” for “sample. The DAPI fluorescence was detected using the Pacific Blue channel; sfGFP and mNeon were detected in the FITC channel, and mCherry fluorescence in the PE-Texas Red channel.”

bacteria = conditions: CPP conjugated to anti-acpP PNA; ref [13]; cited from earlier work
Excerpt: as §8

GRRRRRRRRRPPQ [R9-TAT, cell-penetrating peptide …]
Fold increase in fluorescence compared to the water-treated control [1]: negligible upregulation
Dynamics of sfGFP upregulation [2]: only showed upregulation at the 17 h time point

KFFKFFKFFK [KFF-PNA_ctrl]
Activation of GFP expression ([3]; TS7::sfGFP, 7.5 µM, 4 h post-treatment, MHB): did not activate GFP expression

KFFKFFKFFK [KFF-PNA_toe]
Upregulation of the reporter (median fluorescence vs water control) ([3]; TS7-Mut_9::sfGFP, 5 µM, 4 h, Luria broth (LB)): 6- to 8 fold
Activation of the reporter (median fluorescence vs water control) ([3]; TS7-Mut_9::sfGFP, 5 µM, 4 h, M9 minimal medium): 50- to 60 fold
Activation of the reporter (median fluorescence vs water control) ([3]; TS7-Mut_9::sfGFP, 5 µM, 4 h, MHB, two independent experiments): 50- to 60 fold
Activation of the reporter compared with the original switch ([3]; TS7-Mut_13::sfGFP, 5 µM, 4 h, MHB): no improvement over the original switch
Activation of the reporter compared with the original switch ([3]; TS7-Mut_18::sfGFP, 5 µM, 4 h, MHB): no improvement over the original switch
Upregulation of the reporter (median fluorescence vs water control) ([3]; original TS7::sfGFP, 4 h, MHB): around 30 fold
GFP positive population ([3]; wild-type, TS7-Mut_9::sfGFP, 5 µM, 4 h): ~100%
GFP positive population [4]: ~20%

KFFKFFKFFK [cell-penetrating peptide …, carrier for PNA]
Fold increase in fluorescence compared to the water-treated control [1]: highest fold increase in fluorescence
Speed of increase in fluorescence signal [1]: rapid increase in fluorescence signal
Change of fluorescence over time ([2]; 4, 6 and 17 h): decrease
Dynamics of sfGFP upregulation [2]: rapid upregulation at 4 h
Reporter activation (sfGFP fluorescence vs water control) [5]: highest reporter activation
Stability to proteases and in culture medium [6]: sensitive to proteases and degraded in nutrient-rich media such as MHB

RKKRRQRR [Seq35, cell-penetrating peptide RKKRRQRR]
Dynamics of sfGFP upregulation [2]: only showed upregulation at the 17 h time point

RQIKIWFQNRRMKWKK [ANT, cell-penetrating peptide …]
Fold increase in fluorescence compared to the water-treated control [1]: highest fold increase in fluorescence
Dynamics of sfGFP upregulation [2]: rapid upregulation at 4 h

RRRQRRKKRGY [Seq118, cell-penetrating peptide …]
Dynamics of sfGFP upregulation [2]: only showed upregulation at the 17 h time point
Reporter activation (fold upregulation of sfGFP vs water control) [7]: fivefold

RRRRR [R5, cell-penetrating peptide RRRRR]
Dynamics of sfGFP upregulation [2]: only showed upregulation at the 17 h time point

RRWQW [L5a, cell-penetrating peptide RRWQW]
Fold increase in fluorescence compared to the water-treated control [1]: negligible upregulation

RXRRXRRXRRXRXB [RXR-acpP, RXR conjugated to anti-acpP PNA …]
Time after which bacteria are eradicated (bacteria): 15 min

RXRRXRRXRRXRXB [cell-penetrating peptide RXRRXRRXRRXRXB, carrier for PNA]
Fold increase in fluorescence compared to the water-treated control [1]: highest fold increase in fluorescence
Speed of increase in fluorescence signal [1]: rapid increase in fluorescence signal
Dynamics of sfGFP upregulation [2]: rapid upregulation at 4 h
Reporter activation (sfGFP fluorescence vs water control) [5]: highest reporter activation
Stability to proteolytic degradation ([6]; unconjugated carrier peptide, ref [47]): resistant to proteolytic degradation

VALLPAVLLA [Seq23, cell-penetrating peptide …]
Fold increase in fluorescence compared to the water-treated control [1]: none
Dynamics of sfGFP upregulation [2]: least active carrier
Reporter activation (sfGFP fluorescence vs water control) [5]: least effective PNA carrier
